Experimental data from PubChem BioAssay AID179 (DTP/NCI, 2004).
“And” between values parts separate entries of the source, which are not always exact repeats. Equal entries are not always repeated. The source made the active and inactive calls.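 Rule for the calls: active = compounds giving half or more protection of infected cells from virus-caused growth loss, again on retest; inactive = the rest.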 Where a SMILES comes first, the peptide text is derived from it.

System: CEM cells HIV-1 protection, formazan growth assay
Experiment: NCI AIDS Antiviral Assay
Conditions: for IC50: measured here: growth of uninfected CEM cells
In short: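 Screen of anti-HIV-1 activity in human CEM cells using a formazan-based growth measurement at five drug concentrations. Hits with 50% or greater protection were repeated, and confirmation required reproducible complete protection.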

| SMILES | EC50 [µM] | IC50 | outcome |
| --- | --- | --- | --- |
| O=C(Nc1ccc2c(O)c(N=Nc3ccccc3)c(S(=O)(=O)O)cc2c1)Nc1ccc2c(O)c(N=Nc3ccccc3)c(S(=O)(=O)O)cc2c1 | 40.7 | 50.1 µM and 191 µM |  |
| Cc1ncc2c(c1O)COC2=O | > 1510 | > 1510 µM |  |
| Cc1ncc2c(n1)NC(=O)NC2 | > 83.2 | > 83.2 µM |  |
| N#Cc1c(N)nc(-c2ccc(Cl)cc2)c2c1-c1ccccc1S(=O)(=O)CC2 | > 100 | > 100 µM |  |
| O=[N+]([O-])c1ccc(CSc2c3ccccc3nc3ccccc23)cc1 | > 200 | 3.39 µM |  |
| O=C(N/N=C/c1ccc(O)cc1)c1ccc(OCc2nc3ccccc3[nH]2)cc1 | > 200 | > 200 µM |  |
| NC(=O)C(O)C(O)C(N)=O (configuration not stated) | > 457 | > 457 µM |  |
| O=C(O)CSCC(=O)Nc1ccc2cccc3c2c1CC3 |  |  | inactive |
| CS(=O)CCN=Cc1ccc(N=Nc2ccc(O)cc2)cc1 (configuration not stated) | > 200 | 1.78 µM |  |
| O=c1c(-c2ccccc2)nnc2n(Cc3ccccc3)c3ccccc3n12 | > 200 | 112 µM |  |
| COc1cccc(C2c3cc4c(cc3OC(NNC(N)=O)C2C)OCO4)c1O (configuration not stated) | > 200 | 1.12 µM |  |
| OCCOCC#CCOCCO | > 200 | > 200 µM |  |
| C=C1C(=O)O[C@@H]2C1C(OC(C)CCC)[C@@H](O)[C@@H](C)C(O)C1O[C@]1(C)[C@H]2O (some centres not stated) |  |  | inactive |
| O=[N+]([O-])c1ccc(NC(=S)N/N=C(\c2ccccc2)c2ccccn2)cc1 | > 2 | > 2 µM |  |
| CCCCC[C@@H]1CCCC2N=C(CCCCC3OCCO3)CCC21 (some centres not stated) |  |  | inactive |
| O=c1[nH]nc(Nc2ccc(Cl)cc2)c2nnn(-c3ccc([N+](=O)[O-])cc3)c12 | > 200 | 67.6 µM |  |
| O=C1C(Cl)=C(Cl)C(=O)N1c1cccc(C(F)(F)F)c1 |  |  | inactive |
| CC(=O)c1ccc(NC(=O)/C(CC(=O)/C=C/c2ccccc2)=N/NC(N)=S)cc1 | > 63.1 | > 63.1 µM |  |
| O=C(CCCl)NNC1=NCCCN1 | > 200 | > 200 µM |  |
| C[C@]12CC[C@H](OC(=O)/C=C\c3ccc(N(CCCl)CCCl)cc3)CC1CC[C@@H]1C2CC[C@]2(C)NC(=O)CCC12 (some centres not stated) |  |  | inactive |
| c1ccc(CN2CCC3(N4CCOCC4)C(C2)N=NN3c2ccccc2)cc1 (configuration not stated) | > 200 | 110 µM |  |
| CN1C/C(=C\c2cccs2)C2=NC(=S)NC(c3cccs3)C2C1 (configuration not stated) | > 200 | 36.3 µM |  |
| C=CCc1ccc(O)c(-c2cc(C3Oc4c(-c5cc(CC=C)ccc5O)cc(O)cc4[C@@H]3CO)ccc2O)c1 (some centres not stated) | > 100 | 91.2 µM |  |

| SMILES | EC50 [µM] | IC50 | outcome |
| --- | --- | --- | --- |
| OCCN(CCO)c1ccc2ccc(N(CCO)CCO)nc2n1 | > 200 | 25.7 µM |  |
| O=c1c(O)cccc2cc(O)c(O)c(O)c12 | > 427 | 23.4 µM |  |
| CCC1(N)C(=O)OCc2c1cc1n(c2=O)Cc2cc3ccccc3nc2-1 (configuration not stated) | > 200 | 0.813 µM |  |
| CCCCCCCCCCCCCC(=O)OCC1OC(n2cc(C)c(=O)[nH]c2=O)CC1N=[N+]=[N-] (configuration not stated) | 0.00372 | 102 µM |  |
| O=C(Nc1ccn(C2CC(I)C(COC(c3ccccc3)(c3ccccc3)c3ccccc3)O2)c(=O)n1)c1ccccc1 (configuration not stated) | > 200 | 7.59 µM |  |
| CN(C)c1ccc(/[N+]([O-])=C/c2cc(=O)c(OS(C)(=O)=O)co2)cc1 | > 200 | 3.09 µM |  |
| Cc1ccc2oc(-c3nnc(N)s3)cc(=O)c2c1 | > 28.2 | > 28.2 µM |  |
| O=P(O)(O)CCCNO | > 200 | > 200 µM |  |
| O=C1CCCCCCCCCCC1CN1CCCC1 (configuration not stated) |  |  | inactive |
| Cc1cccc2ns[s+]c12 | > 18.6 | > 18.6 µM |  |
| Cc1ccc(Nc2c3c(c(C#N)c4nc5ccccc5n24)CCCC3)cc1 | > 200 | 10.7 µM |  |
| COC(=O)N1CCC(Sc2ccccc2)C2(CCSc3ccccc3)CCC=C12 (configuration not stated) | > 12.3 | > 12.3 µM |  |
| CCC[CH2][Sn]([CH2]CCC)([O]C(=O)c1cc(F)ccc1F)[O]C(=O)c1cc(F)ccc1F | > 13.2 | 1 µM |  |
| O=C1CC(CC(O)C2CCCCC2O)CC(=O)N1 (configuration not stated) | > 200 | > 200 µM |  |
| N#Cc1ccc(C2Oc3ccc(Cl)cc3C=C2[N+](=O)[O-])cc1 (configuration not stated) | > 200 | 0.977 µM |  |
| Cc1cc(O)c2c(c1)C(=O)C(c1c(C)cc3c(c1O)C(=O)C1OC1C3=O)=CC2=O (configuration not stated) | > 174 | 0.0933 µM |  |
| CCOC(=O)C1=CC(C)(C(=O)OCC)Nc2c(nc(OC)[nH]c2=O)N1 (configuration not stated) | > 200 | > 200 µM |  |
| CC1=C(C)C(=O)C(C2=CC(=O)C=CC2=O)=C(C2=CC(=O)C=CC2=O)C1=O | > 200 | 9.77 µM |  |
| O=C(Nc1ccc(Cl)cc1Cl)C1C(=O)N(c2ccc(Cl)cc2Cl)C(=O)/C1=N\Nc1ccc([N+](=O)[O-])cc1[N+](=O)[O-] (configuration not stated) | > 1.66 | > 1.66 µM |  |
| CC1OC(O[C@@H]2C=C3CC[C@@H]4[C@H](CC[C@]5(C)[C@@H](c6ccc(=O)oc6)CC[C@]45O)[C@@]3(C)CC2)C(O)C(O)C1O (some centres not stated) | > 2 | 0.00468 µM |  |
| CC(CN(C)C)Sc1nnc(SC(C)CN(C)C)s1 (configuration not stated) |  |  | inactive |
| O=C(Cc1ccccc1)N/N=C(\C1=Nc2ccc([N+](=O)[O-])cc2NC1O)C(O)c1ccc([N+](=O)[O-])cc1 (configuration not stated) | > 51.3 | 47.9 µM |  |
| O=c1c(O)c(-c2cc(O)c(O)cc2O)oc2cc(O)c(C3OC(CO)C(O)C(O)C3O)c(O)c12 (configuration not stated) | > 200 | 138 µM |  |

| SMILES | EC50 [µM] | IC50 | outcome |
| --- | --- | --- | --- |
| CCOc1ccc(NC(=S)NC=C(C#N)C#N)cc1 | > 200 | > 200 µM |  |
| COC(=O)c1cc(C(=CCCCCBr)c2cc(Cl)c(OC)c(C(=O)OC)c2)cc(Cl)c1OC | 45.7 | 151 µM |  |
| Clc1ccccc1C(n1ncc2ccccc21)n1ncc2ccccc21 |  |  | inactive |
| O=S1(=O)OCCOS(=O)(=O)C1Cc1ccccc1 | > 447 | 50.1 µM |  |
| O=C(O)c1ccccc1C(=O)OCC1CCCN2CCCCC12 (configuration not stated) | > 151 | > 151 µM |  |
| CCCN(CCCCC(NC(C)=O)C(=O)NCc1ccccc1)C(=O)N(C)N=O (configuration not stated) | > 89.1 | > 89.1 µM |  |
| CC(C)CC1[C@@H](OCc2ccccc2)COS(=O)(=O)N1Cc1ccccc1 (some centres not stated) | > 200 | 77.6 µM |  |
| c1ccc2[nH]c(CSc3nc4ccccc4s3)nc2c1 | > 200 | 120 µM |  |
| CN1CC2(c3ccccc3)CN(C)CC(c3ccccc3)(C1)C2=O | > 112 | > 112 µM |  |
| CC1=CC(=C(c2ccc(N)c(S(=O)(=O)O)c2)c2ccc(N)c(S(=O)(=O)O)c2)C=C(S(=O)(=O)O)C1=N |  |  | inactive |
| O=C(O)c1c(F)c(F)c(S)c(F)c1F | 17.8 | > 200 µM |  |
| O=C(Cc1ccccc1)N[C@@H]1COC(=O)[C@@H]2CCCN2C(=O)[C@@H]2CCCN2C1=O (HELM PEPTIDE1{[O=C(Cc1ccccc1)[*:2]].[O=C([C@@H](CO[*:3])N[*:1])[*:2]].P.P}$PEPTIDE1,PEPTIDE1,2:R3-4:R2$$$V2.0) | > 200 | > 200 µM |  |
| O=c1[nH]nc(-c2ccccc2)n1/N=C/c1ccncc1 | > 200 | 52.5 µM |  |
| NC(=O)c1ccc([Se][Se]c2ccc(C(N)=O)cc2)cc1 | > 13.2 | 6.92 µM |  |
| NC(=O)c1c2c(cc3c(=O)c4ccccc4[nH]c13)CCCC2 |  |  | inactive |
| COc1cc2c(cc1OC)C1Cc3ccccc3CCN1CC2 (configuration not stated) | > 200 | 126 µM |  |
| C[Si]1(C)[Si](C)(C)[Si](C)(C)[Si](C)(C)[Si](C)(C)[Si]1(C)C | > 28.8 | > 28.8 µM |  |
| Cc1ccc(C(=O)Nc2ccc(CP(=O)(O)O)cc2)cc1NC(=O)Nc1cc(C(=O)Nc2ccc(CP(=O)(O)O)cc2)ccc1C | > 50.1 | > 50.1 µM |  |
| COCCN1CC(=O)N2Cc3ccccc3CN2C(=O)C1 |  | > 200 µM | inactive |
| OCC(CCc1ccccc1I)C1=CCC2(CC1)OCCO2 (configuration not stated) | > 200 | 34.7 µM |  |
| CC(C)(O)[C@@H]1CC[C@@]2(C)CCCC(O)C2(O)C1 (some centres not stated) |  |  | inactive |
| CCC1C(C)c2c([nH]c3ccccc23)C2C(=O)N(c3ccccc3)C(=O)C21 (configuration not stated) |  |  | inactive |
| Nc1nc([O-])c2c(n1)[n+](C1OC(CO)C(O)C1O)cn2CCO (configuration not stated) | > 759 | > 759 µM |  |

| SMILES | EC50 [µM] | IC50 | outcome |
| --- | --- | --- | --- |
| CC1(C)OCC[C@@H]1[Si](C)(C)C |  |  | inactive |
| CN(C)CC/C=C1/c2ccccc2Sc2ccc(Cl)cc21 | > 200 | 27.5 µM |  |
| CC(C(N)C(=O)NC(C(=O)O)C1OC(c2c[nH]c(=O)[nH]c2=O)C(O)C1O)C(O)c1ccc(O)cn1 (configuration not stated) |  |  | inactive |
| CN1CC(c2ccccc2)=Cc2c1ccc(N)c2N=N | > 200 | > 200 µM |  |
| Cc1cc2nc3ccc(=[N+](C)C)cc-3sc2cc1N | > 117 | 0.676 µM |  |
| CCOP(=O)(OCC)/C(C#N)=C/c1cc(O)ccc1O | > 832 | 145 µM |  |
| O=S(=O)(CC1=NC2C=CC=CC2N=C1)NCc1ccccc1 (configuration not stated) |  |  | inactive |
| CCOC(=O)C(=CC[C@@H]1N[C@H](C(N)=O)Cc2c1[nH]c1ccccc21)C(=O)OCC | > 33.9 | > 33.9 µM |  |
| FC(F)(F)c1cccc(C=NC23CC4CC(CC(C4)C2)C3)c1 | > 17 | > 17 µM |  |
| NCCOB(c1ccccc1)c1ccccc1 | > 200 | 38.9 µM |  |
| COC(=O)/C=C/C(=O)CC(O)COC(=O)c1ccccc1 (configuration not stated) | > 85.1 | 2.09 µM |  |
| N#CCC1C2CC3C(C2=O)C13 (configuration not stated) | > 200 | > 200 µM |  |
| Cc1ccc(/C([O-])=C(\C(=S)Nc2cccc(C(F)(F)F)c2)[n+]2ccccc2)cc1 | > 200 | 89.1 µM |  |
| O=c1[nH]c2cc(F)c(F)cc2nc1Cc1ccccc1 | > 200 | 132 µM |  |
| CCCCOC(=O)N(CCCC)c1ccccc1 | > 200 | 151 µM |  |
| C/C=C1/CN2CC[C@]34C=C(CO)C1CC23Nc1ccccc14 (some centres not stated) | > 123 | > 123 µM |  |
| O=C(O)CCCNS(=O)(=O)c1ccc2ccccc2c1 |  |  | inactive |
| Cn1ncnc1CCc1ccccc1 | > 32.4 | > 32.4 µM |  |
| Cc1cc(/C=C/c2cc[n+](C)c3ccccc23)c(O)c2ncccc12 | > 398 | 0.759 µM |  |
| NC(=S)N/N=C/c1ncccc1O | > 12.6 | 0.794 µM |  |
